Measured values as given in US20090274676A1, “COMBINATION OF DEHYDROEPIANDROSTERONE OR DEHYDROEPIANDROSTERONE-SULFATE WITH A PDE-4 INHIBITOR FOR TREATMENT OF ASTHMA OR CHRONIC OBSTRUCTIVE PULMONARY DISEASE” (priority 2003, published 2009).

Tests used:
[1] = Solid-state stability with and without lactose at 50° C. (HPLC, DHEA formation); assay type: physicochemical
Description: These conditions were used to stress the formulation in order to predict its long-term stability results. […] The primary degradant is DHEA. […] The materials on accelerated storage become more cohesive with time as evidenced by clumping during sample weighing for chemical analysis. […] This is a considerable disadvantage since lactose is the most commonly used inhalation excipient for dry powder formulations. Continuing with the virtually anhydrous form would mean limiting formulations to neat powder or undertaking more comprehensive safety studies to use a novel excipient.

[2] = Aerosolization of neat DHEA-S dihydrate, Acu-Breathe single-dose inhaler, fine particle fraction; assay type: physicochemical; settings: 30 L/min, IDL data
Description: The single-dose Acu-Breathe device is used for evaluating DHEA-S.dihydrate. […] These blisters are actuated into the Andersen 8-stage cascade impactor at flow rates ranging from 30 to 75 L/min with a glass twin-impinger throat. Stages 1-5 of the Andersen impactor are rinsed together to obtain an estimate of the fine particle fraction. Pooling the drug collected from multiple stages into one assay make the method much more sensitive. […] Using a carrier with a larger particle size typically improves the aerosol properties of micronized drug substances.

C[C@]12CC[C@H](OS(=O)(=O)[O-])CC1=CC[C@@H]1[C@@H]2CC[C@]2(C)C(=O)CC[C@@H]12.[Na+] [Anhydrous DHEA-S]
DHEA % formed ([1]; 50° C., 1 week): 9.817% | DHEA % formed ([1]; 50° C., 2 weeks): 14.954% | DHEA % formed ([1]; 50° C., 4 weeks): 20.171% | DHEA % formed ([1]; Control, initial (Time=0)): 2.774% | DHEA % formed ([1]; Control, sealed, 25° C., 1 week): 2.694% | DHEA % formed ([1]; Control, sealed, 25° C., 2 weeks): 2.370% | DHEA % formed ([1]; Control, sealed, 25° C., 4 weeks): 2.666% | Fine particle fraction (mass entering the impactor) [2]: no detectable mass entered the impactor
